Patent US20250092031A1, “RIPK3 INHIBITORS AND METHODS OF USE” (Momentum Therapeutics, Inc., priority 2023, published 2025)

Tested on: Murine L929 cells
Assay: Necroptosis inhibition assay in L929 cells (mTNFα + zVAD, Sytox Green)
Assay type: cell-based
Details: Mus musculus, 10 ng/ml mTNFα and 20 μM zVAD, 6 hours, Sytox Green fluorescence
Description: Murine L929 cells (ATCC-CCL-1) were seeded at 10,000 cells/well in a 96-well plate. Cells were treated 48 hours after seeding with 10 ng/ml mTNFα (R&D Systems) and 20 μM zVAD (ChemShuttle) in the presence of different concentrations of compounds ranging from […] to 0.01 μM. Cells treated with 0.1% DMSO or cells treated with TNFα+zVAD were used as control and vehicle respectively.
Assay plates containing cells were incubated for 6 hours at 37° C. and 5% CO2. Necroptosis was assessed using Sytox Green Nucleic Acid Stain (Invitrogen). After incubation, 100 μL of Sytox dye at 2 μM (2×) diluted in HBSS 1× was added in each well and incubated for 15 min at room temperature. Fluorescence (500ex/530em) was recorded using the Cytation 5 microplate reader (Biotek).
Percentage of necroptosis inhibition was calculated as the percent compared to control and vehicle conditions which correspond to 100% and 0% respectively. The half-maximum necroptosis inhibition (IC50) levels were calculated using GraphPad Prism software and are shown in Table 3 (NT represents compound not tested).

| SMILES | IC50 [µM] |
| --- | --- |
| O=C1CN(Cc2ccc(-c3ccc4nccc(Nc5ccc6[nH]ncc6c5)c4c3)c(F)c2)CCN1 [Compound 271, 4-(4-(4-(1H-indazol-5-ylamino)quinolin-6-yl)-3-fluorobenzyl)piperazin-2-one] | > 10 |
| O=C1CN(Cc2ccc(-c3ccc4nccc(Nc5ccc6occc6c5)c4c3)c(F)c2)CCN1 [Compound 287, 4-(4-(4-(benzofuran-5-ylamino)quinolin-6-yl)-3-fluorobenzyl)piperazin-2-one] | > 10 |
| Cn1ncc2cc(Nc3ccnc4ccc(-c5ccc(CN6CCNC(=O)C6)cc5F)cc34)ccc21 [Compound 288, 4-(3-fluoro-4-(4-(1-methyl-1H-indazol-5-ylamino)quinolin-6-yl)benzyl)piperazin-2-one] | > 10 |
| O=C1CN(Cc2ccc(-c3ccc4nccc(Nc5ccc6oncc6c5)c4c3)c(F)c2)CCN1 [Compound 289, 4-(4-(4-(benzo[d]isoxazol-5-ylamino)quinolin-6-yl)-3-fluorobenzyl)piperazin-2-one] | > 10 |
| O=C(c1ccc(-c2ccc3nccc(Nc4ccc5scnc5c4)c3c2)nc1)N1CC2(CNC2)C1 [Compound 294, (6-(4-(benzo[d]thiazol-5-ylamino)quinolin-6-yl)pyridin-3-yl)(2,6-diazaspiro[3.3]heptan-2-yl)methanone] | > 10 |
| O=C(c1ccc(-c2ccc3nccc(Nc4ccc5scnc5c4)c3c2)c(F)c1)N1CC2CNCC2C1 (centres unmarked) [Compound 298, (4-(4-(benzo[d]thiazol-5-ylamino)quinolin-6-yl)-3-fluorophenyl)(hexahydropyrrolo[3,4-c]pyrrol-2(1H)-yl)methanone] | < 10 |
| O=C(c1ccc(-c2ccc3c(Nc4ccc5scnc5c4)ccnc3c2)c(F)c1)N1CC2CNCC2C1 (centres unmarked) [Compound 302, (4-(4-(benzo[d]thiazol-5-ylamino)quinolin-7-yl)-3-fluorophenyl)(hexahydropyrrolo[3,4-c]pyrrol-2(1H)-yl)methanone] | < 10 |
| O=C(c1ccc(-c2ccc3nccc(Nc4ccc5scnc5c4)c3c2)c(F)c1)N1C[C@H]2C[C@@H](C1)N2 [Compound 304, (4-(4-(benzo[d]thiazol-5-ylamino)quinolin-6-yl)-3-fluorophenyl)((1R,5S)-3,6-diazabicyclo[3.1.1]heptan-3-yl)methanone] | < 10 |
| O=C(c1ccc(-c2ccc3nccc(Nc4ccc5scnc5c4)c3c2)c(F)c1)N1[C@@H]2CNC[C@H]1C2 [Compound 308, (4-(4-(benzo[d]thiazol-5-ylamino)quinolin-6-yl)-3-fluorophenyl)((1R,5S)-3,6-diazabicyclo[3.1.1]heptan-6-yl)methanone] | < 10 |
| Fc1cc(OC2CCNCC2)ccc1-c1ccc2c(Nc3ccc4scnc4c3)ccnc2c1 [Compound 309, N-(7-(2-fluoro-4-(piperidin-4-yloxy)phenyl)quinolin-4-yl)benzo[d]thiazol-5-amine] | < 10 |
| O=C(c1ccc(-c2ccc3c(Nc4ccc5scnc5c4)ccnc3c2)c(F)c1)N1CCC2(CCNC2)CC1 [Compound 314, (4-(4-(benzo[d]thiazol-5-ylamino)quinolin-7-yl)-3-fluorophenyl)(2,8-diazaspiro[4.5]decan-8-yl)methanone] | < 10 |
| Fc1cc(CN2CCNCC2)ccc1-c1ccc2nccc(Nc3ccc4sccc4c3)c2c1 [Compound 385, N-(benzo[b]thiophen-5-yl)-6-(2-fluoro-4-(piperazin-1-ylmethyl)phenyl)quinolin-4-amine] | > 10 |
| Fc1cc(CN2CCNCC2)ccc1-c1ccc2nccc(Nc3ccc4occc4c3)c2c1 [Compound 386, N-(benzofuran-5-yl)-6-(2-fluoro-4-(piperazin-1-ylmethyl)phenyl)quinolin-4-amine] | > 10 |
| Fc1cc(CN2CCNCC2)ccc1-c1ccc2nccc(Nc3ccc4[nH]ncc4c3)c2c1 [Compound 387, 6-(2-fluoro-4-(piperazin-1-ylmethyl)phenyl)-N-(1H-indazol-5-yl)quinolin-4-amine] | > 10 |
